Source: PubChem BioAssay (NCI)
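Step 1: Grow cells in 96-well plates. Step 2: Expose to compound for 48 hours at 5 concentrations. Step 3: Interpolate endpoints linearly; if unreached, use highest concentration. GI50: concentration for 50% inhibition of growth. TGI is the concentration that stops growth completely.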

Assays:
Assay in all cases: inhibition of tumour cell growth, NCI panel, 48 h
A549 NSCLC = system: A549 NSCLC
RXF 393 renal = system: RXF 393 renal
MDA-MB-231 breast = system: MDA-MB-231 breast
MDA-MB-435 = system: MDA-MB-435
OVCAR-5 ovarian = system: OVCAR-5 ovarian
NCI-H522 lung = system: NCI-H522 lung
CCRF-CEM leukemia = system: CCRF-CEM leukemia
SF-268 CNS = system: SF-268 CNS
HOP-92 NSCLC = system: HOP-92 NSCLC
IGROV1 ovarian = system: IGROV1 ovarian
NCI-H460 lung = system: NCI-H460 lung
HCT-116 colon = system: HCT-116 colon
UACC-257 melanoma = system: UACC-257 melanoma
NCI-H226 lung = system: NCI-H226 lung
TK-10 renal = system: TK-10 renal
NCI/ADR-RES ovarian = system: NCI/ADR-RES ovarian
SN12C renal = system: SN12C renal
786-0 renal = system: 786-0 renal
HCC-2998 colon = system: HCC-2998 colon
SNB-19 CNS = system: SNB-19 CNS
MOLT-4 leukemia = system: MOLT-4 leukemia
SK-MEL-2 melanoma = system: SK-MEL-2 melanoma
RPMI-8226 leukemia = system: RPMI-8226 leukemia
SK-MEL-5 melanoma = system: SK-MEL-5 melanoma
MALME-3M melanoma = system: MALME-3M melanoma
MDA-MB-468 breast = system: MDA-MB-468 breast
M14 melanoma = system: M14 melanoma
KM12 colon = system: KM12 colon
HT29 colon = system: HT29 colon
U251 CNS = system: U251 CNS
K-562 leukemia = system: K-562 leukemia
OVCAR-4 ovarian = system: OVCAR-4 ovarian
SW-620 colon = system: SW-620 colon
OVCAR-3 ovarian = system: OVCAR-3 ovarian
UO-31 renal = system: UO-31 renal
MCF7 breast = system: MCF7 breast
A498 renal = system: A498 renal
OVCAR-8 ovarian = system: OVCAR-8 ovarian
SK-OV-3 ovarian = system: SK-OV-3 ovarian
DU-145 prostate = system: DU-145 prostate
SF-539 CNS = system: SF-539 CNS
UACC-62 melanoma = system: UACC-62 melanoma
SK-MEL-28 melanoma = system: SK-MEL-28 melanoma
T-47D breast = system: T-47D breast
EKVX NSCLC = system: EKVX NSCLC
HS 578T breast = system: HS 578T breast
ACHN renal = system: ACHN renal
SNB-75 CNS = system: SNB-75 CNS
SF-295 CNS = system: SF-295 CNS
HOP-62 NSCLC = system: HOP-62 NSCLC
HL-60(TB) leukemia = system: HL-60(TB) leukemia
HCT-15 colon = system: HCT-15 colon
CAKI-1 renal = system: CAKI-1 renal
LOX IMVI melanoma = system: LOX IMVI melanoma
PC-3 prostate = system: PC-3 prostate
NCI-H23 lung = system: NCI-H23 lung
COLO 205 colon = system: COLO 205 colon
SR leukemia = system: SR leukemia
BT-549 breast = system: BT-549 breast

C=CCn1c(SCC(=O)Nc2ccc(C(=O)/C=C/c3ccccc3)cc2)nnc1-c1c[nH]c2ccccc12
GI50 (A549 NSCLC): 12.1 µM | TGI (A549 NSCLC): 51.9 µM | GI50 (RXF 393 renal): 3.93 µM | TGI (RXF 393 renal): 17.9 µM | GI50 (MDA-MB-231 breast): 11.3 µM | TGI (MDA-MB-231 breast): 42.9 µM | GI50 (MDA-MB-435): 3.08 µM | TGI (MDA-MB-435): 10.6 µM | GI50 (OVCAR-5 ovarian): > 100 µM | TGI (OVCAR-5 ovarian): > 100 µM | GI50 (NCI-H522 lung): 12.4 µM | TGI (NCI-H522 lung): 80.3 µM | GI50 (CCRF-CEM leukemia): 5.58 µM | TGI (CCRF-CEM leukemia): > 100 µM | GI50 (SF-268 CNS): 10.9 µM | TGI (SF-268 CNS): > 100 µM | GI50 (HOP-92 NSCLC): 6.54 µM | TGI (HOP-92 NSCLC): > 100 µM | GI50 (IGROV1 ovarian): 22.5 µM | TGI (IGROV1 ovarian): 86.3 µM | GI50 (NCI-H460 lung): 40.8 µM | TGI (NCI-H460 lung): > 100 µM | GI50 (HCT-116 colon): 1.89 µM | TGI (HCT-116 colon): 3.99 µM | GI50 (UACC-257 melanoma): 20.5 µM | TGI (UACC-257 melanoma): 88.7 µM | GI50 (NCI-H226 lung): 7.06 µM | TGI (NCI-H226 lung): 30.6 µM | GI50 (TK-10 renal): > 100 µM | TGI (TK-10 renal): > 100 µM | GI50 (NCI/ADR-RES ovarian): 32.2 µM | TGI (NCI/ADR-RES ovarian): > 100 µM | GI50 (SN12C renal): 27.7 µM | TGI (SN12C renal): > 100 µM | GI50 (786-0 renal): 20.7 µM | TGI (786-0 renal): 44 µM | GI50 (HCC-2998 colon): 2.69 µM | TGI (HCC-2998 colon): 7.56 µM | GI50 (SNB-19 CNS): 20 µM | TGI (SNB-19 CNS): > 100 µM | GI50 (MOLT-4 leukemia): 4.37 µM | TGI (MOLT-4 leukemia): > 100 µM | GI50 (SK-MEL-2 melanoma): 11.2 µM | TGI (SK-MEL-2 melanoma): 55.4 µM | GI50 (RPMI-8226 leukemia): 2.36 µM | TGI (RPMI-8226 leukemia): 7.39 µM | GI50 (SK-MEL-5 melanoma): 3.91 µM | TGI (SK-MEL-5 melanoma): 15 µM | GI50 (MALME-3M melanoma): 50.6 µM | TGI (MALME-3M melanoma): > 100 µM | GI50 (MDA-MB-468 breast): 4.41 µM | TGI (MDA-MB-468 breast): 17.4 µM | GI50 (M14 melanoma): 12 µM | TGI (M14 melanoma): 37.5 µM | GI50 (KM12 colon): 12.6 µM | TGI (KM12 colon): 37.9 µM | GI50 (HT29 colon): 3.27 µM | TGI (HT29 colon): 12.3 µM | GI50 (U251 CNS): 6.65 µM | TGI (U251 CNS): 19.9 µM | GI50 (K-562 leukemia): 3.37 µM | TGI (K-562 leukemia): > 100 µM | GI50 (OVCAR-4 ovarian): 7.07 µM | TGI (OVCAR-4 ovarian): > 100 µM | GI50 (SW-620 colon): 8.21 µM | TGI (SW-620 colon): 25.5 µM | GI50 (OVCAR-3 ovarian): 9.93 µM | TGI (OVCAR-3 ovarian): 56.4 µM | GI50 (UO-31 renal): 5.28 µM | TGI (UO-31 renal): 23.1 µM | GI50 (MCF7 breast): 1.86 µM | TGI (MCF7 breast): 4.62 µM | GI50 (A498 renal): 16.7 µM | TGI (A498 renal): 38.5 µM | GI50 (OVCAR-8 ovarian): 36 µM | TGI (OVCAR-8 ovarian): > 100 µM | GI50 (SK-OV-3 ovarian): 14.7 µM | TGI (SK-OV-3 ovarian): 32.4 µM | GI50 (DU-145 prostate): 25 µM | TGI (DU-145 prostate): > 100 µM | GI50 (SF-539 CNS): 11.8 µM | TGI (SF-539 CNS): 24.6 µM | GI50 (UACC-62 melanoma): 9.27 µM | TGI (UACC-62 melanoma): > 100 µM | GI50 (SK-MEL-28 melanoma): 13.5 µM | TGI (SK-MEL-28 melanoma): 27.9 µM | GI50 (T-47D breast): 3.78 µM | TGI (T-47D breast): 62.3 µM | GI50 (EKVX NSCLC): 10.7 µM | TGI (EKVX NSCLC): > 100 µM | GI50 (HS 578T breast): 9.05 µM | TGI (HS 578T breast): > 100 µM | GI50 (ACHN renal): 11.6 µM | TGI (ACHN renal): > 100 µM | GI50 (SNB-75 CNS): 2.69 µM | TGI (SNB-75 CNS): > 100 µM | GI50 (SF-295 CNS): 5.85 µM | TGI (SF-295 CNS): 37 µM | GI50 (HOP-62 NSCLC): 47.5 µM | TGI (HOP-62 NSCLC): > 100 µM | GI50 (HL-60(TB) leukemia): 12.7 µM | TGI (HL-60(TB) leukemia): > 100 µM | GI50 (HCT-15 colon): 2.37 µM | TGI (HCT-15 colon): 5.53 µM | GI50 (CAKI-1 renal): 12.1 µM | TGI (CAKI-1 renal): > 100 µM | GI50 (LOX IMVI melanoma): 2.14 µM | TGI (LOX IMVI melanoma): 5.34 µM | GI50 (PC-3 prostate): 5.25 µM | TGI (PC-3 prostate): 64.4 µM | GI50 (NCI-H23 lung): 14.4 µM | TGI (NCI-H23 lung): 29.8 µM | GI50 (COLO 205 colon): 17.6 µM | TGI (COLO 205 colon): 38.2 µM | GI50 (SR leukemia): 6.09 µM | TGI (SR leukemia): 92.4 µM | GI50 (BT-549 breast): 13.1 µM | TGI (BT-549 breast): 28.7 µM
